Tests used:
[1] = target: FXa (Homo sapiens, UniProt P00742); test: Related protease inhibition: FXa, fluorogenic substrate; type: biochemical; conditions: fluorogenic substrate at Km, 25° C.; H1-H3 = % activity at 40 μM
Experimental: Human serine protease enzyme Plasma Kallikrein, KLK1, FXa, Plasmin, Thrombin and Trypsin were assayed for enzymatic activity using an appropriate fluorogenic substrate at Km concentration, FXIa at fixed substrate concentration of 100 μM and various concentrations of the test compound.

[2] = target: T1, Human Factor XIIa (hFXIIa) (Homo sapiens, UniProt P00748); test: Determination of Human Factor XIIa (hFXIIa) inhibition, fluorogenic substrate IC50 assay; type: biochemical; conditions: fluorogenic substrate H-DPro-Phe-Arg-AFC at Km, 25° C., read-out: Human FXIIa IC50
T1 construct: purchased Enzyme Research Laboratories
T1 sequence (P00748 373-615 limits assumed): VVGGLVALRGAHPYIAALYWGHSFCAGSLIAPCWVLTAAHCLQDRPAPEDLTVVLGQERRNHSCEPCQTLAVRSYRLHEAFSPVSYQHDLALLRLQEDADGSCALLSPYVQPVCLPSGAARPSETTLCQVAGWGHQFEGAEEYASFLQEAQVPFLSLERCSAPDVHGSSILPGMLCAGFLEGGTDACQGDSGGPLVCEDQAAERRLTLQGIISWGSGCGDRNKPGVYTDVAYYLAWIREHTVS
T1 sequence (P00748 20-372 partner limits assumed): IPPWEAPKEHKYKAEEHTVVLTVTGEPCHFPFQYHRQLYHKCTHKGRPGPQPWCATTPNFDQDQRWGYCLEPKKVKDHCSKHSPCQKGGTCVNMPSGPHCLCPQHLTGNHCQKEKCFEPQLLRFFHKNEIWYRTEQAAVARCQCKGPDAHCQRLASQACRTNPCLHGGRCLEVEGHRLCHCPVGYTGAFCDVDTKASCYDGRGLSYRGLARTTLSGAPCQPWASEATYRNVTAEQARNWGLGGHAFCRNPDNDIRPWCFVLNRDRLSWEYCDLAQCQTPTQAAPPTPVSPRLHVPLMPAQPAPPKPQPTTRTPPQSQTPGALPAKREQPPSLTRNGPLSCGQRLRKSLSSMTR
Experimental: Determination of Human Factor XIIa (hFXIIa) inhibition
The Km for the cleavage of the substrate by hFXIIa was determined by standard transformation of the Michaelis-Menten equation, with subsequent inhibition assays performed at substrate Km concentration.

Chain of FXa (P00742 235-488 limits assumed): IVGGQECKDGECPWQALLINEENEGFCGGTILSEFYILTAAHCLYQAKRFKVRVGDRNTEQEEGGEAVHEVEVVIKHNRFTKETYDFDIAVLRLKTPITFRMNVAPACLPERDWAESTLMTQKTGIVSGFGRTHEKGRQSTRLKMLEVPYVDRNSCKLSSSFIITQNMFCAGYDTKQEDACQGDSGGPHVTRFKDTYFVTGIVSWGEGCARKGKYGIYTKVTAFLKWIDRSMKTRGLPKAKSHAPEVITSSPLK
Chain of FXa (P00742 41-179 partner limits assumed): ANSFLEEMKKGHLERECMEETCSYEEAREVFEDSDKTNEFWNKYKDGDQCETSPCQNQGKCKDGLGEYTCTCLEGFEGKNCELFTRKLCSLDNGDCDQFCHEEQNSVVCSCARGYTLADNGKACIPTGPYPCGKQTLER

With `CN1CCc2ccc(N3CCc4c(C(=O)NC5CCOCC5)nn(-c5cccc(Cl)c5)c4C3=O)cc2C1=O` [Example 1203, 1-(3-chlorophenyl)-6-(2-methyl-1-oxo-1,2,3,4-tetrahydroisoquinolin-7-yl)-7-oxo-N-(tetrahydro-2H-pyran-4-yl)-4,5,6,7-tetrahydro-1H-pyrazolo[3,4-c]pyridine-3-carboxamide] the IC50 [1] was > 40 µM and the IC50 [2] was 0.1 to 0.3 µM.

In the case of `O=C(NCc1cccnn1)c1nn(-c2cccc(Cl)c2)c2c1CCN(c1ccc3c(c1)CN(CCO)CC3)C2=O` [Example 1204, 1-(3-chlorophenyl)-6-(2-(2-hydroxyethyl)-1,2,3,4-tetrahydroisoquinolin-7-yl)-7-oxo-N-(pyridazin-3-ylmethyl)-4,5,6,7-tetrahydro-1H-pyrazolo[3,4-c]pyridine-3-carboxamide], the IC50 [1] is reported as > 40 µM and the IC50 [2] is reported as 0.1 to 0.3 µM.

For `Cc1cc(CNC(=O)c2nn(-c3cccc(Cl)c3)c3c2CCN(c2ccc4c(c2)CCN(C)C4=O)C3=O)nn1C` [Example 1205, 1-(3-chlorophenyl)-N-((1,5-dimethyl-1H-pyrazol-3-yl)methyl)-6-(2-methyl-1-oxo-1,2,3,4-tetrahydroisoquinolin-6-yl)-7-oxo-4,5,6,7-tetrahydro-1H-pyrazolo[3,4-c]pyridine-3-carboxamide], the IC50 [1] was > 40 µM and the IC50 [2] was 10 to 40 µM.

With `Cc1cc(CNC(=O)c2nn(-c3cccc(Cl)c3)c3c2CCN(c2ccc4c(c2)C(=O)N(C)C4)C3=O)nn1C` [Example 1206, 1-(3-chlorophenyl)-N-((1,5-dimethyl-1H-pyrazol-3-yl)methyl)-6-(2-methyl-3-oxoisoindolin-5-yl)-7-oxo-4,5,6,7-tetrahydro-1H-pyrazolo[3,4-c]pyridine-3-carboxamide] the IC50 [1] was > 40 µM and the IC50 [2] was 1 to 3 µM.

For `CN1C(=O)CCc2ccc(N3CCc4c(C(=O)NCC5CC5)nn(-c5cccc(Cl)c5)c4C3=O)cc21` [Example 1207, 1-(3-chlorophenyl)-N-(cyclopropylmethyl)-6-(1-methyl-2-oxo-1,2,3,4-tetrahydroquinolin-7-yl)-7-oxo-4,5,6,7-tetrahydro-1H-pyrazolo[3,4-c]pyridine-3-carboxamide], the IC50 [1] was > 40 µM and the IC50 [2] was 3 to 10 µM.

With `Cc1cc(CNC(=O)c2nn(-c3cccc(Cl)c3)c3c2CCN(c2ccc4c(c2)N(C)C(=O)CC4)C3=O)nn1C` [Example 1208, 1-(3-chlorophenyl)-N-((1,5-dimethyl-1H-pyrazol-3-yl)methyl)-6-(1-methyl-2-oxo-1,2,3,4-tetrahydroquinolin-7-yl)-7-oxo-4,5,6,7-tetrahydro-1H-pyrazolo[3,4-c]pyridine-3-carboxamide] the IC50 [1] was 10 to 40 µM and the IC50 [2] was 1 to 3 µM.

`CCCN1CCc2ccc(N3CCc4c(C(=O)NCc5cnccc5C)nn(-c5cccc(Cl)c5)c4C3=O)cc2C1=O` [Example 1209, 1-(3-chlorophenyl)-N-((4-methylpyridin-3-yl)methyl)-7-oxo-6-(1-oxo-2-propyl-1,2,3,4-tetrahydroisoquinolin-7-yl)-4,5,6,7-tetrahydro-1H-pyrazolo[3,4-c]pyridine-3-carboxamide] was tested, and the IC50 [1] was > 40 µM and the IC50 [2] was 0.1 to 0.3 µM.

In the case of `CCCN1CCc2ccc(N3CCc4c(C(=O)NCc5cc(C)n(C)n5)nn(-c5cccc(Cl)c5)c4C3=O)cc2C1=O` [Example 1210, 1-(3-chlorophenyl)-N-((1,5-dimethyl-1H-pyrazol-3-yl)methyl)-7-oxo-6-(1-oxo-2-propyl-1,2,3,4-tetrahydroisoquinolin-7-yl)-4,5,6,7-tetrahydro-1H-pyrazolo[3,4-c]pyridine-3-carboxamide], the IC50 [1] is reported as > 40 µM and the IC50 [2] is reported as 0.1 to 0.3 µM.

In the case of `CCCN1CCc2ccc(N3CCc4c(C(=O)NCC5CC5)nn(-c5cccc(Cl)c5)c4C3=O)cc2C1=O` [Example 1211, 1-(3-chlorophenyl)-N-(cyclopropylmethyl)-7-oxo-6-(1-oxo-2-propyl-1,2,3,4-tetrahydroisoquinolin-7-yl)-4,5,6,7-tetrahydro-1H-pyrazolo[3,4-c]pyridine-3-carboxamide], the IC50 [1] is reported as > 40 µM and the IC50 [2] is reported as 0.3 to 1 µM.

With `Cc1ccncc1CNC(=O)c1nn(-c2cccc(Cl)c2)c2c1CCN(c1ccc3ccn(C)c(=O)c3c1)C2=O` [Example 1212, 1-(3-chlorophenyl)-6-(2-methyl-1-oxo-1,2-dihydroisoquinolin-7-yl)-N-((4-methylpyridin-3-yl)methyl)-7-oxo-4,5,6,7-tetrahydro-1H-pyrazolo[3,4-c]pyridine-3-carboxamide] the IC50 [1] was > 40 µM and the IC50 [2] was 1 to 3 µM.

`COc1cncc(CNC(=O)c2nn(-c3cccc(Cl)c3)c3c2CCN(c2ccc4c(c2)C(=O)N(C)CC4)C3=O)c1` [Example 1213, 1-(3-chlorophenyl)-N-((5-methoxypyridin-3-yl)methyl)-6-(2-methyl-1-oxo-1,2,3,4-tetrahydroisoquinolin-7-yl)-7-oxo-4,5,6,7-tetrahydro-1H-pyrazolo[3,4-c]pyridine-3-carboxamide] was tested, and the IC50 [1] was 3 to 10 µM and the IC50 [2] was 0.1 to 0.3 µM.

`O=C(NCC1CC1)c1nn(-c2cccc(Cl)c2)c2c1CCN(c1ccc3c(c1)C(=O)N(CCO)CC3)C2=O` [Example 1216, 1-(3-chlorophenyl)-N-(cyclopropylmethyl)-6-(2-(2-hydroxyethyl)-1-oxo-1,2,3,4-tetrahydroisoquinolin-7-yl)-7-oxo-4,5,6,7-tetrahydro-1H-pyrazolo[3,4-c]pyridine-3-carboxamide] was tested, and the IC50 [1] was > 40 µM and the IC50 [2] was 0.1 to 0.3 µM.

`Cc1cn(C)nc1CNC(=O)c1nn(-c2cccc(Cl)c2)c2c1CCN(c1ccc3c(c1)C(=O)N(CCO)CC3)C2=O` [Example 1217, 1-(3-Chlorophenyl)-N-[(1,4-dimethylpyrazol-3-yl)methyl]-6-[2-(2-hydroxyethyl)-1-oxo-3,4-dihydroisoquinolin-7-yl]-7-oxo-4,5-dihydropyrazolo[3,4-c]pyridine-3-carboxamide] gave an IC50 [1] of 10 to 40 µM and an IC50 [2] of 0.01 to 0.1 µM.

In the case of `O=C(NCc1ccnnc1)c1nn(-c2cccc(Cl)c2)c2c1CCN(c1ccc3c(c1)CN(CCO)CC3)C2=O` [Example 1218, 1-(3-chlorophenyl)-6-(2-(2-hydroxyethyl)-1,2,3,4-tetrahydroisoquinolin-7-yl)-7-oxo-N-(pyridazin-4-ylmethyl)-4,5,6,7-tetrahydro-1H-pyrazolo[3,4-c]pyridine-3-carboxamide], the IC50 [1] is reported as > 40 µM and the IC50 [2] is reported as 0.1 to 0.3 µM.

`O=C(NCc1cocn1)c1nn(-c2cccc(Cl)c2)c2c1CCN(c1ccc3c(c1)CN(CCO)CC3)C2=O` [Example 1223, 1-(3-chlorophenyl)-6-(2-(2-hydroxyethyl)-1,2,3,4-tetrahydroisoquinolin-7-yl)-N-(oxazol-4-ylmethyl)-7-oxo-4,5,6,7-tetrahydro-1H-pyrazolo[3,4-c]pyridine-3-carboxamide] was tested, and the IC50 [1] was 10 to 40 µM and the IC50 [2] was 0.1 to 0.3 µM.

`CCN1CCc2ccc(N3CCc4c(C(=O)NCc5nn(C)cc5C)nn(-c5cccc(Cl)c5)c4C3=O)cc2C1=O` [Example 1224, 1-(3-chlorophenyl)-N-((1,4-dimethyl-1H-pyrazol-3-yl)methyl)-6-(2-ethyl-1-oxo-1,2,3,4-tetrahydroisoquinolin-7-yl)-7-oxo-4,5,6,7-tetrahydro-1H-pyrazolo[3,4-c]pyridine-3-carboxamide] was tested, and the IC50 [1] was > 40 µM and the IC50 [2] was 0.1 to 0.3 µM.

`Cc1cn(C)nc1CNC(=O)c1nn(-c2cccc(Cl)c2)c2c1CCN(c1ccc3c(c1)C(=O)N(C)CC3)C2=O` [Example 1225, 1-(3-chlorophenyl)-N-((1,4-dimethyl-1H-pyrazol-3-yl)methyl)-6-(2-methyl-1-oxo-1,2,3,4-tetrahydroisoquinolin-7-yl)-7-oxo-4,5,6,7-tetrahydro-1H-pyrazolo[3,4-c]pyridine-3-carboxamide] was tested, and the IC50 [1] was 10 to 40 µM and the IC50 [2] was 0.1 to 0.3 µM.

With `COc1cc(N2CCc3c(C(=O)NCC4CC4)nn(-c4cccc(Cl)c4)c3C2=O)cc2c1CCN(CCO)C2` [Example 1226, 1-(3-chlorophenyl)-N-(cyclopropylmethyl)-6-(2-(2-hydroxyethyl)-5-methoxy-1,2,3,4-tetrahydroisoquinolin-7-yl)-7-oxo-4,5,6,7-tetrahydro-1H-pyrazolo[3,4-c]pyridine-3-carboxamide] the IC50 [1] was > 40 µM and the IC50 [2] was 0.1 to 0.3 µM.

`Cc1cc(CNC(=O)c2nn(-c3cccc(Cl)c3)c3c2CCN(c2cc4c(nn2)CCN(CCO)C4)C3=O)nn1C` [Example 1227, 1-(3-chlorophenyl)-N-((1,5-dimethyl-1H-pyrazol-3-yl)methyl)-6-(6-(2-hydroxyethyl)-5,6,7,8-tetrahydropyrido[4,3-c]pyridazin-3-yl)-7-oxo-4,5,6,7-tetrahydro-1H-pyrazolo[3,4-c]pyridine-3-carboxamide] showed an IC50 [1] of 10 to 40 µM and an IC50 [2] of 0.1 to 0.3 µM.

`COc1cccnc1CNC(=O)c1nn(-c2cccc(Cl)c2)c2c1CCN(c1cc3c(nn1)CCN(CCO)C3)C2=O` [Example 1229, 1-(3-chlorophenyl)-6-(6-(2-hydroxyethyl)-5,6,7,8-tetrahydropyrido[4,3-c]pyridazin-3-yl)-N-((3-methoxypyridin-2-yl)methyl)-7-oxo-4,5,6,7-tetrahydro-1H-pyrazolo[3,4-c]pyridine-3-carboxamide] gave an IC50 [1] of 10 to 40 µM and an IC50 [2] of 0.1 to 0.3 µM.
